Structures can show the parent of a compound that is named as a salt.
Target: human CXCR3-A receptor (Homo sapiens (Human), UniProt P49682)
Experiment: 125I-CXCL10 competition radioligand binding assay
Settings: displacement of 125I-CXCL10 from membranes of CHO cells expressing human recombinant CXCR3-A
Method: IC50 values were determined for the test compounds and used to explore the structure-activity relationships (SAR). […] This cell line was registered in Sanofi-Aventis cell line bank. […] Cell suspension was diluted with PBS and cells were collected with centrifugation at 230 g for 10 minutes at 10° C. with a Juan centrifuge. […] The supernatant was carefully collected and centrifuged at 100,000×g for 60 min at 4° with a Beckman Avanti J30 centrifuge. […] Protein concentration was determined with Bio-Rad protein assay (Cat No 500-0006). Membrane aliquots were stored at -80° C. […] The composition of the binding assay buffer was determined in a course of detailed optimization procedure. […] Binding reaction was initiated by adding of membranes (10-20 μg proteins, approximately 5×10^5 cell equivalents) to the reaction mixture. After 60 minutes of incubation at 25° C. the reaction was terminated by rapid filtration over GF/B glass fiber filters that were pre-soaked with 0.5% polyethyleneimine (Fluka Analytical, P3143) for 1 hour, using a Skatron cell harvester device. Filters then were washed with 8 ml of ice-cold wash buffer (modified binding buffer in which BSA was omitted and the concentration of NaCl was adjusted to 500 mM concentration). The radioactivity retained on the filters was measured by a Wizard 1470 Automatic Gamma counter. Test compounds were dissolved prior to the binding assay at a concentration of 10 mM in DMSO. Stock solutions were stored at -20° C. for not longer than 3 months. […] Before adding these solutions of test compound to the binding reaction mixture, an intermediate dilution procedure was applied, in which 30 μL of each solution sample was transferred into a dilution tube containing 970 μL of binding assay buffer. […] The IC50 values and Hill slopes for competition binding data were obtained using nonlinear four-parametric curve fitting method.

Sequence of human CXCR3-A receptor (P49682 whole entry): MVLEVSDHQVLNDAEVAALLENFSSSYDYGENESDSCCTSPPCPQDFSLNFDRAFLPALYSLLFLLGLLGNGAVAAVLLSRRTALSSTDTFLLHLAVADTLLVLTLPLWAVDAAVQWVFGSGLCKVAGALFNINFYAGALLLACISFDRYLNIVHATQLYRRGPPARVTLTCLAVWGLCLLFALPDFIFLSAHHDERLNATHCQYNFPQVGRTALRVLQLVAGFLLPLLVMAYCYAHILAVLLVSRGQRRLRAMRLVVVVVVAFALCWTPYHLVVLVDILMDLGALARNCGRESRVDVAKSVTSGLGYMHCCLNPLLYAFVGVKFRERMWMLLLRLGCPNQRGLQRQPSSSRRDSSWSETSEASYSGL

| IC50 | Structure (SMILES) |
| --- | --- |
| 79 nM | COc1cc(CN(C[C@H]2CC[C@H](C(=O)O)CC2)[C@H]2CCc3cc(Cl)ccc32)ccc1OCCN1C(=O)c2ccccc2C1=O [Example 156, trans-4-[(((S)-5-Chloro-indan-1-yl)-{4-[2-(1,3-dioxo-1,3-dihydro-isoindol-2-yl)-ethoxy]-3-methoxy-benzyl}-amino)-methyl]-cyclohexanecarboxylic acid; hydrochloride] |
| 37 nM | COc1cc(CN(C[C@H]2CC[C@H](C(=O)O)CC2)C(C)c2ccc3c(c2)CCO3)ccc1OCCN1C(=O)CSC1=O (stereo partly drawn) [Example 15, trans-4-[([1-(2,3-Dihydro-benzofuran-5-yl)-ethyl]-{4-[2-(2,4-dioxo-thiazolidin-3-yl)-ethoxy]-3-methoxy-benzyl}-amino)-methyl]-cyclohexanecarboxylic acid] |
| 160 nM | COc1cc(CN(C[C@H]2CC[C@H](C(=O)O)CC2)C2CCc3cc(Cl)ccc32)ccc1CCCN1C(=O)CCC1=O (stereo in doubt) [Example 45, trans-4-[(((R)-5-Chloro-indan-1-yl)-{4-[3-(2,5-dioxo-pyrrolidin-1-yl)-propyl]-3-methoxy-benzyl}-amino)-methyl]-cyclohexanecarboxylic acid] |
| 167 nM | COc1cc(CN(C[C@H]2CC[C@H](C(=O)O)CC2)C(C)c2ccc3c(c2)CCC3)ccc1OCCN1C(=O)CCC1=O (stereo partly drawn) [Example 144, trans-4-{[{4-[2-(2,5-Dioxo-pyrrolidin-1-yl)-ethoxy]-3-methoxy-benzyl}-(1-indan-5-yl-ethyl)-amino]-methyl}-cyclohexanecarboxylic acid] |
| 220 nM | CC(c1ccc(Cl)c(F)c1)N(Cc1ccc(OCCN2C(=O)CCC2=O)c(F)c1)C[C@H]1CC[C@H](C(=O)O)CC1 (stereo partly drawn) [Example 92, trans-4-[([1-(4-Chloro-3-fluoro-phenyl)-ethyl]-{4-[2-(2,5-dioxo-pyrrolidin-1-yl)-ethoxy]-3-fluoro-benzyl}-amino)-methyl]-cyclohexanecarboxylic acid] |
| 630 nM | COc1cc(CN(C[C@H]2CC[C@H](C(=O)O)CC2)C2CCc3cc(F)c(Cl)cc32)ccc1OCCN1C(=O)CCC1=O (stereo partly drawn) [Example 94, trans-4-[((6-Chloro-5-fluoro-indan-1-yl)-{4-[2-(2,5-dioxo-pyrrolidin-1-yl)-ethoxy]-3-methoxy-benzyl}-amino)-methyl]-cyclohexanecarboxylic acid] |
| 1640 nM | Cc1cc(CN(C2CCc3cc(Cl)ccc32)[C@H]2C[C@@H](C(=O)O)C2)ccc1OCCN1C(=O)CCC1=O (stereo partly drawn) [Example 133, cis-3-((5-Chloro-indan-1-yl)-{4-[2-(2,5-dioxo-pyrrolidin-1-yl)-ethoxy]-3-methyl-benzyl}-amino)-cyclobutanecarboxylic acid] |
| 154 nM | C[C@@H](c1ccc(Cl)cc1)N(Cc1ccc(OCCN2C(=O)CCC2=O)c(F)c1)C[C@H]1CC[C@H](C(=O)O)CC1 [Example 73, trans-4-[([(S)-1-(4-Chloro-phenyl)-ethyl]-{4-[2-(2,5-dioxo-pyrrolidin-1-yl)-ethoxy]-3-fluoro-benzyl}-amino)-methyl]-cyclohexanecarboxylic acid] |
| 107 nM | COc1cc(CN(C[C@H]2CC[C@H](C(=O)O)CC2)C(C)c2ccc(C)cc2)ccc1OCCN1C(=O)CCC1=O (stereo partly drawn) [Example 84, trans-4-{[{4-[2-(2,5-Dioxo-pyrrolidin-1-yl)-ethoxy]-3-methoxy-benzyl}-(1-p-tolyl-ethyl)-amino]-methyl}-cyclohexanecarboxylic acid] |
| 789 nM | COc1cc(CN(C[C@H]2CC[C@H](C(=O)O)CC2)[C@@H](C)c2ccc(Cl)cc2)ccc1OCCN1C(=O)CN(C)C1=O [Example 53, trans-4-[([(S)-1-(4-Chloro-phenyl)-ethyl]-{3-methoxy-4-[2-(3-methyl-2,5-dioxo-imidazolidin-1-yl)-ethoxy]-benzyl}-amino)-methyl]-cyclohexanecarboxylic acid] |
| 5300 nM | Cc1cc([C@H](C)N(Cc2ccc(OCCN3C(=O)CCC3=O)c(C)c2)[C@H]2C[C@H](C(=O)O)C2)ccc1Cl [Example 130] |
